Test results: EP1322622B1, “NEW N, N'-DISUBSTITUTED BENZIMIDAZOLONE DERIVATIVES WITH AFFINITY AT THE SEROTONIN AND DOPAMINE RECEPTORS” (Sprout Pharmaceuticals, Inc., priority 2000, dated 2002)

Experiments:
D4 human receptors = target: T1, D4 human receptors (Homo sapiens, UniProt P21917); assay: D4 Radioligand Receptor Binding Assay ([3H] YM-09151-2, CHO cell membranes); details: compound at 10^-7 M, singlicate; [3H] YM-09151-2 0.15-0.25 nM; read-out: D4 receptor binding assay % inhib. (10^-7 M)
T1 construct: expressed in transfected cells; host or cells: CHO cells
T1 sequence (P21917 1-419): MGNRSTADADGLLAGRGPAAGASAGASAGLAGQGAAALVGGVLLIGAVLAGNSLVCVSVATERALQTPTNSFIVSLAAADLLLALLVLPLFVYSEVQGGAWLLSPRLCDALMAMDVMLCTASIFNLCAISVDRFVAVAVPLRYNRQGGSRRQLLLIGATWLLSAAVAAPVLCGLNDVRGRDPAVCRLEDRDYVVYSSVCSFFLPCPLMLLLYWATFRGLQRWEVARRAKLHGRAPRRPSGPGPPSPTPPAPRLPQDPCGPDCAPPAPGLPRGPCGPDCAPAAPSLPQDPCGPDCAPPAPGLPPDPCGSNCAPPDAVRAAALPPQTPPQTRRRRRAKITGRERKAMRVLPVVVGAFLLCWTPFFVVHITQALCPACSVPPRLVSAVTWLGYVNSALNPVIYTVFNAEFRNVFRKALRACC
Method: Membranes from CHO cells, expressing D4 human receptors were suspended in incubation buffer.
Binding assays were performed in MultiProbe 204 pipetting system (Packard), according to a predetermined mapping, consistent with the software Screen. The compounds were tested in singlicate at one concentration (10^-7 M) in a total volume of 1000 µl (980 µl of diluted membranes, 10 µl DMSO or unlabelled ligand and 10 µl of [^3H] YM-09151-2 (0.15-0.25 nM). After incubation for 120 min at 27 °C, the reaction was stopped by rapid filtration through Tomtec cell Harvester (48 wells) using Filtermat B (presoaked in 0.1% PEI) filters. Filters were washed with ice-cold 50 mM Tris-HCl (pH 7.4) buffer (9 x 700 µl), dryed, covered with MeltiLex B/HS (Wallac) scintillator sheets and heated in oven at 80-90 °C for about 10 min, transferred into plastic sample bags (Wallac), sealed and put into 1024 Beta Plate scintillation counter (Wallac). Non specific binding was determined in the presence of clozapine dissolved in DMSO to a final concentration of 10^-5 M.
(§1) The specific radioligand binding to the receptor was defined by the difference between total binding and non specific binding, determined in the presence of an excess of unlabelled ligand. Results were expressed as percentage of control specific binding obtained in the presence of the compounds.

5-HT1A human receptors = target: T2, 5-HT1A human receptors (Homo sapiens, UniProt P08908); assay: 5-HT1A Radioligand Receptor Binding Assay ([3H]-8-OH-DPAT, CHO cell membranes); details: for IC50: [3H]-8-OH-DPAT displacement, CHO membranes, read-out: 5-HT1A receptor binding IC50; for inhibition at 0.1 µM: compound at 10^-7 M, singlicate, [3H]-8-OH-DPAT 0.6-0.7 nM, read-out: 5-HT1A receptor binding assay % inhib. (10^-7 M)
T2 construct: expressed in transfected cells; host or cells: CHO cells
T2 sequence (P08908 1-422): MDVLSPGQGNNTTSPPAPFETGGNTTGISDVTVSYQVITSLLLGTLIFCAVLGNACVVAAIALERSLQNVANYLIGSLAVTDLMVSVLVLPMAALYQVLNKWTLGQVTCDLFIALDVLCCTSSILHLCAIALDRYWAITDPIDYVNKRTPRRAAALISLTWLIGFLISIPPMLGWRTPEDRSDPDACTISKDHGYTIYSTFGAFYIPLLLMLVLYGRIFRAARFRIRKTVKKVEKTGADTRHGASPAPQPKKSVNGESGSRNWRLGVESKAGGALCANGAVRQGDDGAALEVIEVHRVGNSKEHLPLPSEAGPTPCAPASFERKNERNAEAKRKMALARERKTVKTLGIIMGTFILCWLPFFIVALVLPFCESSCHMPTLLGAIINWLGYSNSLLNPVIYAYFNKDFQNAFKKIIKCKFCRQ
Method: Membranes from CHO cells, expressing 5-HT1A human receptors were suspended in incubation buffer.
The compounds were tested in singlicate at one concentration (10^-7 M) in a total volume of 1000 µl. 980 µl of diluted membranes, 10 µl DMSO or unlabelled ligand and 10 µl of [^3H]-8-OH-DPAT (0.6-0.7 nM) were incubated for 60 min at 27 °C. The reaction was stopped by rapid filtration through Tomtec cell Harvester (48 wells) using Filtermat B (presoaked in 0.1% PEI) filters. […] Non specific binding was determined in the presence of 5-HT (10^-5 M).
as §1
(§2) The affinity values (IC50) for the compounds were obtained by a non linear least squares regression analysis on the basis of a one binding site model.

5-HT2A = target: T3, 5-HT2A (Rattus norvegicus, UniProt P14842); assay: 5HT2A Radioligand Receptor Binding Assay ([3H]-Ketanserin, cerebral frontal cortex membranes); set-up: species or system Rats; details: 0.5 nM [3H]-Ketanserin
T3 construct: Cerebral frontal cortex was homogenized in 10 volumes of ice cold 0.32 M sucrose; from tissue; host or cells: rat cerebral frontal cortex membranes
T3 sequence (P14842 whole entry): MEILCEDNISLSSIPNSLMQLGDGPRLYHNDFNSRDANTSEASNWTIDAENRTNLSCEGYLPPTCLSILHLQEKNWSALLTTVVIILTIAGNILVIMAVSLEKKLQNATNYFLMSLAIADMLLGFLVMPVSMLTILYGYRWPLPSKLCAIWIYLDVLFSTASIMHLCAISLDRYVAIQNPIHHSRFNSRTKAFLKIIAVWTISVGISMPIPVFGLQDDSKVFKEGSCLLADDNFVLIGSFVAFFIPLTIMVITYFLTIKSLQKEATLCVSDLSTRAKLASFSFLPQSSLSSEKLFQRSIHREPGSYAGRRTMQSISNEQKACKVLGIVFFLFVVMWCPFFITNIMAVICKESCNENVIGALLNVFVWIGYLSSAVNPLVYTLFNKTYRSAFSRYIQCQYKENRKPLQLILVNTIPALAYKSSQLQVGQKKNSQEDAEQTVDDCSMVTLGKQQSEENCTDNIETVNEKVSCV
Method: Rats (male Sprague-Dawley, 200-250 g) were used. Cerebral frontal cortex was homogenized in 10 volumes of ice cold 0.32 M sucrose in 5 mM Tris-HCl ([…]) buffer. After centrifugation of the homogenate (1,000 x g for 10 min) the supernatant was then recentrifuged at 48,000x g for 15 min.The resulting pellet was gently homogenized in an equal volume of 50mM Tris-HCl buffer (pH 7.4) and incubated at 37° C for 10 minutes. Membranes were then collected by centrifugation as above described and finally resuspended in 10 volumes of 50mM Tris-HCl buffer (pH 7.4).
For displacement experiments membranes (980 µl) were diluted in 50 mM Tris-HCl buffer (pH 7.4) to a final concentration of 1:100 (w/v); the tissue suspension was then incubated at 37 °C for 10 min in a final volume of 1 ml in the presence of 0.5 nM [^3H]-Ketanserin. Non specific binding was determined by incubating similar samples with unlabelled methysergide (100 µM). […] The filters were washed three times with 2 ml ice-cold Tris-HCl buffer and placed in polyethylene vials, then 4 ml of Filter Count scintillation cocktail (Packard) were added. The radioactivity present was counted by liquid scintillation spectrometry.
as §2

CHO/5-HT1A cells = target: T4, CHO/5-HT1A cells (Homo sapiens, UniProt P08908); assay: 5-HT1A Functional assay (cAMP); type: cell-based; details: 10 µM compound; % inhibition of the cAMP accumulation induced by 10 µM FSK; read-out: 5-HT1A cAMP % inhib.
T4 construct: expressed in transfected cells; host or cells: CHO/5-HT1A cells
T4 sequence (P08908 1-422): T2 sequence (P08908 1-422)
Method: CHO/5-HT1A cells were random seeded at a density of about 200,000/well in 24 well plates the day prior to the experiment. On the day of the experiment, cells were pretreated for 15 min at 37 °C with 500 µM isobuthylmethylxantine (IBMX) dissolved in culture medium without serum. Wells were then divided in different groups in duplicate as follows: control, 10 µM FSK, 10 µM FSK + 1 µM 5-HT as positive standard and 10 µM FSK + 10 µM of the different compound under evaluation. Sample solutions were added and incubated for additional 15 min at 37 °C. After incubation, medium was aspirated and the reaction stopped by adding 200 µl of lysis buffer. Plates were shaken for 5 min, then the lysate was removed and samples were stored at 4 °C until the day of the assay. For the cAMP evaluation, samples were properly diluted and the cAMP content was measured by an enzymeimmunoassay system.

SMILES: O=c1n(CCO)c2ccccc2n1CCN1CCN(c2cccc(Cl)c2)CC1 [compound 183]
- inhibition at 0.1 µM (D4 human receptors): 62%
- IC50 (5-HT1A human receptors): 7.2 nM
- inhibition at 0.1 µM (5-HT1A human receptors): 96%
- IC50 (5-HT2A): 27 nM
- inhibition at 10 µM (CHO/5-HT1A cells): 66%

SMILES: Cc1cccc(N2CCN(CCCCn3c(=O)n(CCO)c4ccccc43)CC2)c1C [compound 73]
- inhibition at 0.1 µM (D4 human receptors): 58%
- IC50 (5-HT1A human receptors): 13 nM
- inhibition at 0.1 µM (5-HT1A human receptors): 91%
- IC50 (5-HT2A): 0.9 nM
- inhibition at 10 µM (CHO/5-HT1A cells): 45%

SMILES: Cc1cccc(N2CCN(CCn3c(=O)n(CCNS(C)(=O)=O)c4ccccc43)CC2)c1C [compound 254]
- inhibition at 0.1 µM (D4 human receptors): 34%
- IC50 (5-HT1A human receptors): 7.4 nM
- inhibition at 0.1 µM (5-HT1A human receptors): 85%
- IC50 (5-HT2A): 65 nM
- inhibition at 10 µM (CHO/5-HT1A cells): 66%

SMILES: COCCn1c(=O)n(CCN2CCN(c3cccc(C(F)(F)F)c3)CC2)c2ccccc21 [compound 168]
- IC50 (5-HT1A human receptors): 5 nM
- IC50 (5-HT2A): 46 nM
- inhibition at 10 µM (CHO/5-HT1A cells): 71%

SMILES: CCNC(=O)OCCn1c(=O)n(CCN2CCN(c3cccc(C(F)(F)F)c3)CC2)c2ccccc21 [compound 206]
- IC50 (5-HT1A human receptors): 2.1 nM
- IC50 (5-HT2A): 17 nM
- inhibition at 10 µM (CHO/5-HT1A cells): 80%

SMILES: CS(=O)(=O)NCCn1c(=O)n(C/C=C\CN2CC=C(c3ccccc3)CC2)c2ccccc21 [compound 504]
- inhibition at 0.1 µM (D4 human receptors): 34%
- inhibition at 0.1 µM (5-HT1A human receptors): 93%
- inhibition at 10 µM (CHO/5-HT1A cells): 50%

SMILES: COCCn1c(=O)n(CCCCN2CCN(c3cccc(C(F)(F)F)c3)CC2)c2ccccc21 [compound 9]
- inhibition at 0.1 µM (D4 human receptors): 32%
- IC50 (5-HT1A human receptors): 9.9 nM
- inhibition at 0.1 µM (5-HT1A human receptors): 93%
- IC50 (5-HT2A): 16 nM
- inhibition at 10 µM (CHO/5-HT1A cells): 48%

SMILES: CCNC(=O)OCCn1c(=O)n(CCN2CCN(c3ccccc3Cl)CC2)c2ccccc21 [compound 219]
- inhibition at 0.1 µM (D4 human receptors): 37%
- IC50 (5-HT1A human receptors): 15 nM
- inhibition at 0.1 µM (5-HT1A human receptors): 89%
- inhibition at 10 µM (CHO/5-HT1A cells): 61%

SMILES: CCNC(=O)OCCn1c(=O)n(CCCCN2CCN(c3cccc(C(F)(F)F)c3)CC2)c2ccccc21 [compound 83]
- inhibition at 0.1 µM (D4 human receptors): 39%
- IC50 (5-HT1A human receptors): 15 nM
- inhibition at 0.1 µM (5-HT1A human receptors): 89%
- IC50 (5-HT2A): 43 nM
- inhibition at 10 µM (CHO/5-HT1A cells): 64%

SMILES: CC(=O)NCCn1c(=O)n(CCN2CCN(c3cccc(C)c3C)CC2)c2ccccc21 [compound 446]
- inhibition at 0.1 µM (D4 human receptors): 31%
- IC50 (5-HT1A human receptors): 7.3 nM
- inhibition at 0.1 µM (5-HT1A human receptors): 92%
- inhibition at 10 µM (CHO/5-HT1A cells): 81%

SMILES: COCCn1c(=O)n(CCN2CCN(c3cccc(C)c3C)CC2)c2ccccc21 [compound 177]
- IC50 (5-HT1A human receptors): 3.3 nM
- inhibition at 0.1 µM (5-HT1A human receptors): 98%
- IC50 (5-HT2A): 7.7 nM
- inhibition at 10 µM (CHO/5-HT1A cells): 76%
